Reference: the supplement of paper PMC8617591

Legend:
[1] = system: Mycobacterium tuberculosis Erdman (autoluminescent); assay: GRinf, maximum normalised growth rate inhibition (unitless (-1 to 1)); higher = less effect (negative = killing)
Protocol: (§1)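 DiaMOND equipotent two-drug combination dose responses against autoluminescent M. tuberculosis Erdman in 8 in vitro models. Read-out is OD600, or luminescence for the intracellular and dormancy models, normalised to untreated wells. Hill-fit Einf, AUC25 and GRinf are potency metrics; FIC50 and FIC90 are Loewe-additivity fractional inhibitory concentrations, given as log2 (negative = synergy). Replicates are averaged.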

[2] = system: Mycobacterium tuberculosis Erdman (autoluminescent); assay: Einf, fitted maximum growth inhibition of combination (fraction); higher = stronger maximal inhibition
Protocol: as §1

[3] = system: Mycobacterium tuberculosis Erdman (autoluminescent); assay: FIC90 (Loewe) at 90% inhibition (log2); higher = more antagonistic
Protocol: as §1

[4] = system: Mycobacterium tuberculosis Erdman (autoluminescent); assay: AUC25, normalised area under dose response up to IC25 (fraction (0-1)); higher = more potent at low dose
Protocol: as §1

[5] = system: Mycobacterium tuberculosis Erdman (autoluminescent); assay: FIC50 (Loewe) at 50% inhibition (log2); higher = more antagonistic
Protocol: as §1

[6] = system: Mycobacterium tuberculosis Erdman (autoluminescent); assay: Einf, fitted maximum growth inhibition of three-drug combination (fraction); higher = stronger maximal inhibition
Protocol: (§2)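 DiaMOND equipotent three-drug combination dose responses (10 doses, 1.5- or 2-fold spacing, centred on IC90) against autoluminescent M. tuberculosis Erdman in 8 in vitro models. Read-out is OD600, or luminescence for the intracellular and dormancy models, normalised to untreated wells. Hill-fit Einf, AUC25 and GRinf are potency metrics; FIC50 and FIC90 are total Loewe fractional inhibitory concentrations as log2 (negative = synergy).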

[7] = system: Mycobacterium tuberculosis Erdman (autoluminescent); assay: total FIC50 (Loewe) at 50% inhibition, three-drug combination (log2); higher = more antagonistic
Protocol: as §2

[8] = system: Mycobacterium tuberculosis Erdman (autoluminescent); assay: AUC25, normalised area under dose response up to IC25 (three-drug combination) (fraction (0-1)); higher = more potent at low dose
Protocol: as §2

[9] = system: Mycobacterium tuberculosis Erdman (autoluminescent); assay: GRinf, maximum normalised growth rate inhibition (three-drug combination) (unitless (-1 to 1)); higher = less effect (negative = killing)
Protocol: as §2

[10] = system: Mycobacterium tuberculosis Erdman (autoluminescent); assay: total FIC90 (Loewe) at 90% inhibition, three-drug combination (log2); higher = more antagonistic
Protocol: as §2

COc1nc2ccc(Br)cc2cc1[C@@H](c1ccccc1)[C@@](O)(CCN(C)C)c1cccc2ccccc12 [bedaquiline] + CC[C@@H](CO)NCCN[C@@H](CC)CO [ethambutol]
Settings | AUC25, [4] | Einf, [2] | FIC50, [5] | FIC90, [3] | GRinf, [1]
in vitro model: acidic pH 5.7, time point: constant (~7 days, model-specific) | 0.133 | 0.831 | 0.111 | – | -0.514
in vitro model: acidic pH 5.7, time point: terminal (~4-5 doublings, model-specific) | 0.0618 | 0.961 | 0.595 | -0.0708 | -0.42
in vitro model: intracellular J774, time point: constant = terminal | – | 1 | – | -0.00203 | -0.728

Settings | AUC25, [4] | Einf, [2] | FIC50, [5] | FIC90, [3] | GRinf, [1]
in vitro model: butyrate, time point: constant (~7 days, model-specific) | 0.0683 | 0.948 | 0.277 | – | -0.0865
in vitro model: butyrate, time point: terminal (~4-5 doublings, model-specific) | 0.0577 | 0.978 | 0.142 | -0.418 | -0.0993
in vitro model: cholesterol 0.05 mM, time point: constant (~7 days, model-specific) | 0.0646 | 0.736 | 0.507 | – | -0.236
in vitro model: cholesterol 0.05 mM, time point: terminal (~4-5 doublings, model-specific) | 0.0688 | 0.956 | 0.89 | 0.731 | -0.404
in vitro model: cholesterol-high 0.2 mM, time point: constant (~7 days, model-specific) | 0.026 | 0.994 | 0.819 | – | -0.858
in vitro model: cholesterol-high 0.2 mM, time point: terminal (~4-5 doublings, model-specific) | 0.0312 | 1 | 0.85 | 0.757 | -0.687
in vitro model: dormancy (butyrate + nitrate, low O2), time point: constant (~7 days, model-specific) | 0.139 | 0.866 | 1.04 | – | 0.338
in vitro model: dormancy (butyrate + nitrate, low O2), time point: terminal (~4-5 doublings, model-specific) | 0.131 | 0.995 | 0.336 | 1.24 | -0.154
in vitro model: standard 7H9 glycerol, time point: constant = terminal | 0.0591 | 0.949 | 0.176 | -0.108 | -0.0657
in vitro model: valerate, time point: constant (~7 days, model-specific) | 0.108 | 0.953 | 0.0258 | – | -0.286
in vitro model: valerate, time point: terminal (~4-5 doublings, model-specific) | 0.0819 | 0.979 | 0.247 | -0.129 | -0.0998

COc1c(N2C[C@@H]3CCCN[C@@H]3C2)c(F)cc2c(=O)c(C(=O)O)cn(C3CC3)c12 [moxifloxacin] + O=[N+]([O-])c1cn2c(n1)OC[C@@H](OCc1ccc(OC(F)(F)F)cc1)C2 [pretomanid] + CO[C@H]1/C=C/O[C@@]2(C)Oc3c(C)c(O)c4c(O)c(c(/C=N/N5CCN(C6CCCC6)CC5)c(O)c4c3C2=O)NC(=O)/C(C)=C\C=C\[C@H](C)[C@H](O)[C@@H](C)[C@@H](O)[C@@H](C)[C@H](OC(C)=O)[C@@H]1C [rifapentine]
Settings | AUC25, [8] | Einf, [6] | GRinf, [9] | total FIC50, [7] | total FIC90, [10]
in vitro model: acidic pH 5.7, time point: constant (~7 days, model-specific) | 0.0693 | 0.874 | -0.139 | 0.708 | –
in vitro model: acidic pH 5.7, time point: terminal (~4-5 doublings, model-specific) | 0.0354 | 0.971 | -0.106 | 0.952 | 0.554
in vitro model: intracellular J774, time point: constant = terminal | – | 0.964 | -0.179 | – | 0.252

Settings | AUC25, [8] | Einf, [6] | GRinf, [9] | total FIC50, [7] | total FIC90, [10]
in vitro model: butyrate, time point: constant (~7 days, model-specific) | 0.099 | 0.918 | -0.00663 | 0.501 | 0.722
in vitro model: butyrate, time point: terminal (~4-5 doublings, model-specific) | 0.0765 | 0.963 | -0.00653 | 0.582 | 0.784
in vitro model: cholesterol 0.05 mM, time point: constant (~7 days, model-specific) | 0.111 | 0.713 | -0.172 | 0.593 | –
in vitro model: cholesterol 0.05 mM, time point: terminal (~4-5 doublings, model-specific) | 0.0851 | 0.89 | -0.186 | 1.01 | 1.21
in vitro model: cholesterol-high 0.2 mM, time point: constant (~7 days, model-specific) | 0.0549 | 0.877 | -0.142 | 0.887 | 0.511
in vitro model: cholesterol-high 0.2 mM, time point: terminal (~4-5 doublings, model-specific) | 0.04 | 0.988 | -0.672 | 1.15 | 0.705
in vitro model: dormancy (butyrate + nitrate, low O2), time point: constant (~7 days, model-specific) | 0.0589 | 0.89 | 0.213 | 0.874 | 0.639
in vitro model: dormancy (butyrate + nitrate, low O2), time point: terminal (~4-5 doublings, model-specific) | 0.0483 | 0.98 | -0.128 | 1.17 | 1.14
in vitro model: standard 7H9 glycerol, time point: constant = terminal | 0.0568 | 0.928 | -0.0296 | 0.55 | 0.207
in vitro model: valerate, time point: constant (~7 days, model-specific) | 0.116 | 0.89 | 0.0703 | 0.213 | –
in vitro model: valerate, time point: terminal (~4-5 doublings, model-specific) | 0.0723 | 0.941 | 0.0683 | 0.631 | 0.879

COc1c(N2C[C@@H]3CCCN[C@@H]3C2)c(F)cc2c(=O)c(C(=O)O)cn(C3CC3)c12 [moxifloxacin] + O=[N+]([O-])c1cn2c(n1)OC[C@@H](OCc1ccc(OC(F)(F)F)cc1)C2 [pretomanid] + CO[C@H]1/C=C/O[C@@]2(C)Oc3c(C)c(O)c4c(O)c(c(/C=N/N5CCN(C)CC5)c(O)c4c3C2=O)NC(=O)/C(C)=C\C=C\[C@H](C)[C@H](O)[C@@H](C)[C@@H](O)[C@@H](C)[C@H](OC(C)=O)[C@@H]1C [rifampicin]
Settings | AUC25, [8] | Einf, [6] | GRinf, [9] | total FIC50, [7] | total FIC90, [10]
in vitro model: acidic pH 5.7, time point: constant (~7 days, model-specific) | 0.0717 | 0.875 | -0.146 | 0.484 | –
in vitro model: acidic pH 5.7, time point: terminal (~4-5 doublings, model-specific) | 0.0448 | 0.974 | -0.163 | 0.652 | 0.221
in vitro model: intracellular J774, time point: constant = terminal | – | 0.979 | -0.304 | – | 0.0806

Settings | AUC25, [8] | Einf, [6] | GRinf, [9] | total FIC50, [7] | total FIC90, [10]
in vitro model: butyrate, time point: constant (~7 days, model-specific) | 0.0923 | 0.912 | 0.0241 | 0.355 | 0.227
in vitro model: butyrate, time point: terminal (~4-5 doublings, model-specific) | 0.085 | 0.962 | 0.00652 | 0.25 | 0.434
in vitro model: cholesterol 0.05 mM, time point: constant (~7 days, model-specific) | 0.0931 | 0.606 | -0.000182 | 0.67 | –
in vitro model: cholesterol 0.05 mM, time point: terminal (~4-5 doublings, model-specific) | 0.0743 | 0.858 | -0.0705 | 1.14 | -0.636
in vitro model: cholesterol-high 0.2 mM, time point: constant (~7 days, model-specific) | 0.0701 | 0.849 | -0.468 | 0.869 | 1.29
in vitro model: cholesterol-high 0.2 mM, time point: terminal (~4-5 doublings, model-specific) | 0.0765 | 0.996 | -0.801 | 0.954 | 0.992
in vitro model: dormancy (butyrate + nitrate, low O2), time point: constant (~7 days, model-specific) | 0.0676 | 0.883 | 0.23 | 0.689 | 0.327
in vitro model: dormancy (butyrate + nitrate, low O2), time point: terminal (~4-5 doublings, model-specific) | 0.0531 | 0.965 | -0.0626 | 0.662 | 0.913
in vitro model: standard 7H9 glycerol, time point: constant = terminal | 0.0625 | 0.883 | 0.162 | 0.125 | –
in vitro model: valerate, time point: constant (~7 days, model-specific) | 0.0778 | 0.847 | 0.0569 | 0.325 | –
in vitro model: valerate, time point: terminal (~4-5 doublings, model-specific) | 0.0459 | 0.924 | 0.0455 | 0.877 | 0.41
